Where a name gives a salt, the structure may show the parent alone.
Legend:
Conditions in all cases: exposure time 48 h
[1] = system: Caenorhabditis elegans N2; assay: AC50 for larval growth inhibition (Hill fit); higher = less potent
In short: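 Synchronised C. elegans N2 L1 larvae (50 per well, 96-well plates) were grown for 48 h at 20°C in K-medium with killed OP50, 1% DMSO and 0.5–200 µM chemical. The COPAS Biosort measured each worm's size as extinction, which was log-transformed and averaged per well. AC50 came from a constrained Hill fit by weighted genetic-algorithm regression on wells with at least 10 worms. Out-of-range values are censored.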

[2] = system: Caenorhabditis elegans N2; assay: lowest effective concentration for larval growth inhibition (size below effect threshold); higher = less potent
In short: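 L1 larvae of C. elegans N2 (50 per 96-well) were grown in K-medium with killed bacteria and 1% DMSO, with the chemical at 0.5, 1, 5, 10, 50, 100 or 200 µM, for 48 h at 20°C. Per-worm extinction from the Biosort stood for size and was log-transformed into well means. For each chemical, the lowest effective concentration is the first dose where plate-adjusted mean size falls under the threshold and stays under it at the higher doses, using a threshold of 5.665.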

[3] = system: Caenorhabditis elegans N2; assay: mean nematode size ln(EXT) after 48 h, plate-adjusted (DMSO control set to 6) (ln(EXT), control-adjusted); higher = larger nematodes / less growth inhibition
In short: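 Each treatment used 4–6 wells of 50 synchronised C. elegans N2 L1 larvae, kept for 48 h at 20°C in K-medium with killed OP50, 1% DMSO and 0.5–200 µM chemical. Debris was excluded by a growth model after the Biosort measured per-worm extinction. Mean size per well came from natural-logged values and was plate-adjusted. That adjustment subtracted the vehicle control mean and then added 6.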

Row | SMILES | AC50 for larval growth inhibition [1] | lowest effective concentration [2] | mean nematode size ln(EXT) (ln) ([3]; 0.5 µM) | mean nematode size ln(EXT) (ln) ([3]; 1 µM) | mean nematode size ln(EXT) (ln) ([3]; 5 µM) | mean nematode size ln(EXT) (ln) ([3]; 10 µM) | mean nematode size ln(EXT) (ln) ([3]; 50 µM) | mean nematode size ln(EXT) (ln) ([3]; 100 µM) | mean nematode size ln(EXT) (ln) ([3]; 200 µM)
1 | CCC(C)(C)c1ccc(O)cc1 [4-(2-methylbutan-2-yl)phenol] | > 200 µM | 200 µM | 5.8 | 5.81 | 5.74 | 5.76 | 5.75 | 5.92 | 4.97
2 | CN(C)CCCN1c2ccccc2Sc2ccc(Cl)cc21 [Chlorpromazine hydrochloride] | 46.3 µM | 50 µM | 5.89 | 5.87 | 5.82 | 5.71 | 4.47 | 3.85 | 3.07
3 | O=C(O)C(F)(F)C(F)(F)C(F)(F)C(F)(F)C(F)(F)C(F)(F)F [Perfluoroheptanoic acid] | > 200 µM | 100 µM | 5.87 | 5.85 | 5.88 | 5.83 | 5.74 | 5.42 | 5.57
4 | O=C(O)c1cccc(C(=O)O)c1 [Isophthalic acid] | > 200 µM | 200 µM | 5.93 | 5.83 | 5.85 | 5.87 | 5.8 | 5.82 | 4.8
5 | CSc1nc(NC(C)C)nc(NC(C)C)n1 [Prometryn] | > 200 µM | 200 µM | 5.83 | 5.76 | 5.87 | 6 | 5.79 | 5.86 | 5.37
6 | OCCO [Ethylene glycol] | > 200 µM | 100 µM | 5.79 | 5.77 | 5.77 | 5.78 | 5.72 | 5.63 | 5.65
7 | CCO/N=C(\CC)C1=C(O)CC(c2c(C)cc(C)cc2C)CC1=O (stereo not given) [Tralkoxydim] | 109 µM | 200 µM | 5.85 | 5.93 | 5.9 | 6.14 | 6.08 | 5.93 | 5.48
8 | ClC1=C(Cl)C2(Cl)C3C4C=CC(C4)C3C1(Cl)C2(Cl)Cl (stereo not given) [Aldrin] | 3.92 µM | 1 µM | 5.97 | 5.64 | 4.59 | 3.88 | 3.6 | 3.76 | 3.25
9 | N#Cc1c(Cl)cccc1Cl [Dichlobenil] | > 200 µM | 200 µM | 5.93 | 5.79 | 6.11 | 5.95 | 5.9 | 6.01 | 5.54
10 | CC(C)(OOC(C)(C)c1ccccc1)c1ccccc1 [Dicumyl peroxide’-(Dioxydipropane-2,2-diyl)dibenzene)] | > 200 µM | 50 µM | 5.83 | 5.8 | 5.83 | 5.82 | 5.62 | 5.38 | 5.45
11 | [Cl][Hg][Cl] [Mercuric chloride] | 7.77 µM | 5 µM | 5.91 | 5.84 | 5.47 | 4.41 | 3.59 | 3.72 | 3.64
12 | CC(=O)[C@H]1CC[C@H]2[C@@H]3CCC4=CC(=O)CC[C@]4(C)[C@H]3CC[C@]12C [Progesterone] | > 200 µM | 200 µM | 5.84 | 5.84 | 5.86 | 5.9 | 5.72 | 5.95 | 5.58
13 | CCC1(c2ccccc2)C(=O)NC(=O)NC1=O [Phenobarbital sodium salt] | > 200 µM | 200 µM | 5.87 | 5.82 | 5.88 | 5.86 | 5.87 | 5.91 | 5.65
14 | CCOC(=O)NCCOc1ccc(Oc2ccccc2)cc1 [Fenoxycarb] | 37.2 µM | 10 µM | 5.96 | 5.87 | 5.9 | 5.59 | 4.47 | 4.1 | 3.72
15 | CN(C)c1ccc(C(=C2C=CC(=[N+](C)C)C=C2)c2ccc(N(C)C)cc2)cc1 [Hexamethyl-p-rosaniline chloride] | < 0.5 µM | ≤ 0.5 µM | 4.79 | 4.53 | 4.01 | 3.85 | 3.66 | 4.08 | 4.02
16 | CC(C)N(C(=O)COc1nnc(C(F)(F)F)s1)c1ccc(F)cc1 [Flufenacet] | 21.5 µM | 200 µM | 5.91 | 5.94 | 6.03 | 6.05 | 5.45 | 6.04 | 5.52
17 | CCNc1nc(Cl)nc(NC(C)(C)C)n1 [Terbuthylazin] | > 200 µM | 50 µM | 6 | 5.99 | 5.96 | 5.95 | 5.65 | 5.58 | 5.22
18 | COS(=O)(=O)OC [Dimethyl sulfate] | 61.5 µM | 100 µM | 5.83 | 5.97 | 6.03 | 5.92 | 5.98 | 5.28 | 5.61
19 | Nc1ccn([C@@H]2O[C@H](CO)[C@@H](O)[C@@H]2O)c(=O)n1 [Cytarabine HCl] | > 200 µM | 200 µM | 5.96 | 5.87 | 5.95 | 6 | 5.89 | 6.03 | 5.47
20 | CC(C)(C)OOC(C)(C)CCC(C)(C)OOC(C)(C)C [2,5-Dimethyl-2,5-bis(tert-butylperoxy)hexane] | 185 µM | 200 µM | 5.81 | 5.83 | 5.81 | 5.79 | 5.78 | 5.79 | 4.23
21 | CCOP(=S)(Oc1ccc([N+](=O)[O-])cc1)c1ccccc1 (stereo not given) [O-Ethyl O-(p-nitrophenyl) phenylphosphonothioate] | 6.09 µM | ≤ 0.5 µM | 5.28 | 5.07 | 4.53 | 4.38 | 4.13 | 4.01 | 3.39
22 | O=[N+]([O-])c1ccc(O)c([N+](=O)[O-])c1 [2,4-Dinitrophenol] | > 200 µM | 200 µM | 5.82 | 5.79 | 5.78 | 5.83 | 5.83 | 5.75 | 5.52
23 | NC(=O)N(O)[C@@H]1COc2cc(OCc3ccccc3)ccc21 | > 200 µM | 200 µM | 5.86 | 5.87 | 5.82 | 5.77 | 5.84 | 5.81 | 5.59

Row | SMILES | AC50 for larval growth inhibition [1] | lowest effective concentration [2] | mean nematode size ln(EXT) (ln) ([3]; 0.5 µM) | mean nematode size ln(EXT) (ln) ([3]; 1 µM) | mean nematode size ln(EXT) (ln) ([3]; 5 µM) | mean nematode size ln(EXT) (ln) ([3]; 10 µM) | mean nematode size ln(EXT) (ln) ([3]; 50 µM) | mean nematode size ln(EXT) (ln) ([3]; 100 µM) | mean nematode size ln(EXT) (ln) ([3]; 200 µM)
24 | Fc1ccccc1[C@@H](F)CO[C@H]1CC[C@H](Nc2[nH]cnc3nncc2-3)CC1 | > 200 µM | 100 µM | 5.89 | 5.84 | 5.82 | 5.68 | 5.67 | 5.25 | 5.4
25 | O=C(O)c1cccc(C[C@@H]2COc3ccc(OCc4nc5cc(F)ccc5s4)cc3[C@@H]2O)c1 | > 200 µM | 200 µM | 5.95 | 5.88 | 5.79 | 5.88 | 5.87 | 5.92 | 5.09
26 | CCCCOC(=O)[C@@H](C)Oc1ccc(Oc2ccc(C(F)(F)F)cn2)cc1 [Fluazifop-P-butyl] | 98.7 µM | 100 µM | 6.18 | 6.51 | 6.31 | 6.37 | 6.22 | 5.52 | 4.99
27 | CCCC1COC(Cn2cncn2)(c2ccc(Cl)cc2Cl)O1 (stereo not given) [Propiconazole] | > 200 µM | 200 µM | 6.02 | 6.09 | 6.16 | 6.21 | 5.95 | 5.93 | 5.05
28 | CCCCCCCC1CCC(=O)O1 (stereo not given) [5-Heptyldihydro-2(3H)-furanone] | 182 µM | 200 µM | 5.94 | 5.81 | 5.79 | 5.79 | 5.76 | 5.87 | 4.09
29 | CCN(CC)c1ccccc1 [N,N-Diethyl aniline] | 186 µM | 200 µM | 6.08 | 6.09 | 5.9 | 6 | 5.98 | 6.05 | 4.83
30 | COC(=O)Nc1nc2ccccc2[nH]1 [methyl 1H-benzimidazol-2-ylcarbamate] | 6.43 µM | 5 µM | 5.81 | 5.7 | 5.32 | 5.32 | 5.06 | 4.58 | 4.89
31 | CCCCCCCCCCCCCCCS(=O)(=O)Oc1ccccc1 [C10-21 sulfonic acids phenyl esters] | 169 µM | 200 µM | 6.06 | 6.02 | 5.89 | 6 | 5.93 | 5.96 | 3.65
32 | CC(C)NC(=O)N1CC(=O)N(c2cc(Cl)cc(Cl)c2)C1=O [Iprodione] | > 200 µM | 200 µM | 5.99 | 5.95 | 5.85 | 6.06 | 5.87 | 5.8 | 5.4
33 | CCCCCCCCCCO [1-Decanol (Decanol)] | 143 µM | 200 µM | 5.95 | 5.91 | 5.83 | 5.85 | 5.79 | 5.69 | 3.42
34 | O=C(CCl)c1ccccc1 [2-Chloroacetophenone] | > 200 µM | 200 µM | 5.82 | 5.84 | 5.82 | 5.48 | 5.82 | 5.8 | 4.95
35 | CCCCSP(=O)(SCCCC)SCCCC [Tribufos] | 5.32 µM | 5 µM | 5.81 | 5.73 | 5.58 | 3.53 | 3.25 | 3.33 | 4.2
36 | OC[C@@H](O)[C@@H](O)[C@H](O)[C@H](O)CO [D-Mannitol] | > 200 µM | 200 µM | 5.94 | 5.89 | 5.93 | 5.96 | 5.93 | 5.94 | 5.42
37 | CCc1ccc(O)c(C(C)(C)C)c1 [2-tert-Butyl-4-ethylphenol] | > 200 µM | 50 µM | 5.77 | 5.75 | 5.72 | 5.86 | 5.45 | 5.58 | 4.88
38 | CC1(C)C(C=C(Cl)Cl)C1C(=O)OCc1cccc(Oc2ccccc2)c1 (stereo not given) [Permethrin] | 11.2 µM | 10 µM | 5.91 | 5.9 | 5.67 | 5.56 | 5.41 | 4.98 | 5.24
39 | CCCCC(CC)COC(=O)CCCCC(=O)OCC(CC)CCCC (stereo not given) [Di(2-ethylhexyl)adipate] | > 200 µM | 200 µM | 5.87 | 5.8 | 5.73 | 5.76 | 5.75 | 5.82 | 5.55
40 | O=C(O)C(F)(F)C(F)(F)C(F)(F)C(F)(F)C(F)(F)C(F)(F)C(F)(F)C(F)(F)C(F)(F)C(F)(F)F [Perfluoroundecanoic acid] | 4.14 µM | 5 µM | 5.8 | 5.77 | 4.55 | 3.95 | 3.63 | 3.64 | 3.2
41 | COc1ccc(OC(F)(F)F)cc1CN[C@H]1CCCN[C@H]1c1ccccc1 | 185 µM | 50 µM | 6.04 | 5.82 | 5.68 | 5.67 | 5.39 | 4.71 | 4.55
42 | Cc1nn(-c2cc(NS(C)(=O)=O)c(Cl)cc2Cl)c(=O)n1C(F)F [Sulfentrazone] | 108 µM | 200 µM | 5.85 | 5.87 | 5.92 | 5.96 | 6.05 | 5.9 | 5.5
43 | CCC(=O)Nc1ccc(Cl)c(Cl)c1 [Propanil] | > 200 µM | 200 µM | 5.8 | 5.75 | 5.7 | 5.93 | 6 | 5.96 | 5.04
44 | Oc1cccc2cccnc12 [8-Hydroxyquinoline] | > 200 µM | 200 µM | 5.89 | 5.92 | 5.91 | 5.83 | 5.78 | 5.72 | 5.56
45 | CCC(CC)Nc1c([N+](=O)[O-])cc(C)c(C)c1[N+](=O)[O-] [Pendimethalin] | > 200 µM | 200 µM | 5.89 | 5.93 | 5.86 | 5.77 | 5.86 | 6.13 | 5.44
